The values below come from publication PMC11444200, “In Vitro Evaluation of Antipseudomonal Activity and Safety Profile of Peptidomimetic Furin Inhibitors” (Biomedicines, 2024).

In data set [1] the test system is Pseudomonas aeruginosa. Kind of data set: viability (CCK-8) of MDCK cells challenged with Pseudomonas aeruginosa. It counts as cell-based. The note with it: P. aeruginosa 10^6 CFU/mL, 5 h, inhibitor 2 h prior and during, tested 0.5-100 µM. On the procedure: MDCK NBL-2 cells were obtained from Cytion (formerly: CLS Cell Lines Service, Eppenheim, Germany). Cells were grown in T-75 cell culture flasks, using Dulbecco’s Modified Eagle’s Medium (DMEM, Capricorn Scientific, Ebsdorfergrund, Germany) supplemented with 5% foetal bovine serum (FBS, Capricorn) and antibiotic–antimycotic solution (penicillin, streptomycin, amphotericin B; Merck, Darmstadt, Germany). The cells were subcultured and seeded in wells of 96-well microtiter plates one day prior to the experiments. After 24 h, near 100% confluence was recorded in the wells. The growth and incubation of MDCK cells were carried out in a humidified incubator at 37 °C and in the presence of 5% CO2. […] Three times single colonies from ten different blood agar plates were dissolved in 5 mL of distilled water, and colony-forming units (CFU) were counted after their serial dilution and overnight incubation on non-selective blood agar at 37 °C. […] The count of Pseudomonas aeruginosa from inoculating vials was also assessed and was in good accordance with our count prediction. […] Following the addition of the final reagent (100 µL fresh Williams’ Medium E) and a 2 h incubation period, the absorbance was measured at 450 nm using a SpectraMax iD3 (Molecular Devices, San José, CA, USA).

Data set [2] relates to IPEC-J2 cells. The experiment in a line: CCK-8 cytotoxicity assay in IPEC-J2 cells. It counts as cell-based, porcine. The note with it: 50 µM or 100 µM, 24 h. On the procedure: The cell line used for the experiments was the IPEC-J2 from the jejunum of porcine. The IPEC-J2 epithelial cell line was a kind gift from Dr. Jody Gookin (Department of Clinical Sciences, College of Veterinary Medicine, North Carolina State University, Raleigh, NC, USA). The cell monolayers were maintained in 75 cm^2 cell culture flasks with filtered caps (Orange Scientific, Braine-l’Alleud, Belgium) at 37 °C in a humidified atmosphere containing 5% CO2. […]
The possible cytotoxic effects of the inhibitors MI-1851 and MI-2415 (structures provided in Figure 1) in different concentrations on IPEC-J2 and those of inhibitor MI-2415 on PHHs were assessed for 24 h by performing the CCK-8 assay (Dojindo Molecular Technologies, Rockville, MD, USA). […] Following three times washing of the wells with PBS, 10 µL CCK-8 reagent mixed with 100 µL fresh Williams’ Medium E was added and the absorbance values were measured at 450 nm using the SpectraMax iD3 microplate reader (Molecular Devices, San José, CA, USA) after 2 h incubation. […]
(In general: Tetrazolium dyes change colour on reduction, which living cells bring about.)

Data set [3] has as its system IPEC-J2 cells. The experiment in a line: Amplex Red extracellular H2O2 assay in IPEC-J2 cells. It counts as cell-based, porcine. To be noted: 50 or 100 μM, 24 h. On the procedure: (§1) The cell line used for the experiments was the IPEC-J2 from the jejunum of porcine. The IPEC-J2 epithelial cell line was a kind gift from Dr. Jody Gookin (Department of Clinical Sciences, College of Veterinary Medicine, North Carolina State University, Raleigh, NC, USA). The cell monolayers were maintained in 75 cm^2 cell culture flasks with filtered caps (Orange Scientific, Braine-l’Alleud, Belgium) at 37 °C in a humidified atmosphere containing 5% CO2. The culture medium contained 50% Dulbecco’s modified Eagle’s medium (DMEM) and 50% Ham’s F12 Nutrient Mixture (Merck, Darmstadt, Germany) supplemented with 1.5 mmol/L HEPES, 5% fetal bovine serum (FBS) (Biocenter, Budapest, Hungary), 1% insulin/transferrin/sodium selenite medium supplement, 5 ng/mL epidermal growth factor (EGF), and 1% penicillin/streptomycin (all purchased from Invitrogen, Thermo Fisher Scientific, Waltham, MA, USA). Cells were used between passages 40 and 55. The media were changed every second day. Cells were seeded onto 96- and 24-well polystyrene cell culture plates for the cell viability and the Amplex Red/DCFH-DA assay, respectively. […]

Data set [4] has as its system IPEC-J2 cells. The experiment in a line: DCFH-DA intracellular ROS assay in IPEC-J2 cells. The format is cell-based, porcine. The note with it: 50 and 100 μM, 24 h. As to the method: as §1, with “55.” for “55. The media were changed every second day. Cells were seeded onto 96- and 24-well polystyrene cell culture plates for the cell viability and the Amplex Red/DCFH-DA assay, respectively.”
The ability of inhibitors MI-1851 and MI-2415 to induce oxidative stress (ROS) within IPEC-J2 as well as of compound MI-2415 within PHHs was investigated with 2,7-dichloro-dihydro-fluorescein diacetate (DCFH2-DA). […] A Victor X2 2030 (Perkin Elmer, Waltham, MA, USA) was used to determine the fluorescence values of the samples (excitation wavelength: 485 nm, emission wavelength: 535 nm), which are directly proportional to the ROS generation.

The test system of data set [5] is mice. The note with it: cited from earlier work; for tolerated i.p. dose: mice.

Read-outs that look alike come from different tables or passages of the source.

Turning to `CC(C)(C)[C@H](NC(=O)[C@H](CCONC(=N)N)NC(=O)Cc1ccc(CNC(=N)N)cc1)C(=O)N[C@@H](CCONC(=N)N)C(=O)NCc1ccc(C(=N)N)cc1` [MI-1851], in data set [1], the “concentration with antipseudomonal effect (preserved MDCK cell viability)” value was 0.5 µM. Also, in data set [2], the “cell viability of IPEC-J2 cells” value was “did not show a significant decrease in cell viability”. Further, the “extracellular H2O2 production (redox balance) in IPEC-J2 cells” value in data set [3] was “slightly, but statistically not significantly”. In addition, the “intracellular ROS levels in IPEC-J2 cells” value in data set [4] is listed as “no significant alterations in intracellular ROS levels”. Besides, the tolerated i.p. dose in data set [5] (no higher dose was tested) is given as 15 mg/kg.

As to `CC(C)(C)[C@H](NC(=O)[C@H](CCONC(=N)N)NC(=O)Cc1ccc(CNC(=N)N)cc1)C(=O)N[C@@H](CCONC(=N)N)C(=O)NCc1ccc2c(c1)CN=C2N` [MI-2415], in data set [1], the “concentration with antipseudomonal effect (preserved MDCK cell viability)” value was no less than 25 µM. In addition, the “cell viability of IPEC-J2 cells” value in data set [2] is “did not show a significant decrease in cell viability”. Further, the “extracellular H2O2 production (redox balance) in IPEC-J2 cells” value in data set [3] is reported as “slightly, but statistically not significantly”. The “intracellular ROS levels in IPEC-J2 cells” value in data set [4] was “no significant alterations in intracellular ROS levels”. In data set [5], the tolerated i.p. dose is listed as 15 mg/kg. The mortality entry in data set [5] (mouse, in vivo, ip, 20 mg/kg) is “one of four mice died”.
